Laboratory results reported in PubChem BioAssay (NCI).
Where “and” joins values, the source holds several entries; their conditions need not be identical. Identical values can stand only once.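 48-hour exposure; five concentrations; linearly interpolated endpoints. At the GI50, growth is halved. TGI is the concentration that stops growth completely.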

Experiments:
Assay in all cases: NCI tumour cell line growth inhibition, 48 h
M19-MEL melanoma = system: M19-MEL melanoma
XF 498 CNS = system: XF 498 CNS
SNB-78 CNS = system: SNB-78 CNS
KM20L2 colon = system: KM20L2 colon
RXF-631 renal = system: RXF-631 renal
LXFL 529 NSCLC = system: LXFL 529 NSCLC
HOP-18 NSCLC = system: HOP-18 NSCLC
DLD-1 colon = system: DLD-1 colon
MDA-N = system: MDA-N
SN12K1 renal = system: SN12K1 renal
P388 leukemia = system: P388 leukemia
P388/ADR leukemia = system: P388/ADR leukemia

| SMILES | TGI (M19-MEL melanoma) | TGI (XF 498 CNS) | TGI (SNB-78 CNS) | TGI (KM20L2 colon) | TGI (RXF-631 renal) | TGI (LXFL 529 NSCLC) | TGI (HOP-18 NSCLC) | TGI (DLD-1 colon) | TGI (MDA-N) [µM] | further results |
| --- | --- | --- | --- | --- | --- | --- | --- | --- | --- | --- |
| O=C(CC/C(CC(=O)c1ccc(Cl)cc1)=N/O)Nc1ccc(Cl)c(Cl)c1 | > 100 µM | > 100 µM | > 100 µM | > 100 µM | > 100 µM | > 100 µM | > 100 µM | > 100 µM | – | – |
| N#CCCN(CCC#N)c1ccc(/C=N\c2nc(-c3ccccc3)cs2)cc1 | > 100 µM | > 100 µM | > 100 µM | > 100 µM | > 100 µM | > 100 µM | – | > 100 µM | – | – |
| Cn1c(=O)c2[nH]c(C3CC(=O)CC(c4nc5c([nH]4)c(=O)n(C)c(=O)n5C)N3)nc2n(C)c1=O (centres undefined) | – | – | – | – | – | – | – | – | > 100 | – |
| N#CCC12CC=CCC1=C(O)C(=O)c1ccc(O)cc12 (centres undefined) | – | – | – | – | – | – | – | – | > 100 | – |
| N#CCc1ccc(/C(C#N)=C2/OC(=N)C(c3ccc(CC#N)cc3)C2=O)cc1 (centres undefined) | > 100 µM | > 100 µM | > 100 µM | > 100 µM | > 100 µM | > 100 µM | – | > 100 µM | – | – |
| Cc1ccc(-c2nc3c(C(=O)NCCN(C)C)cccc3[nH]2)cc1 | 29.7 µM | – | 83.3 µM | – | 31 µM | – | 51.5 µM | 73.2 µM | – | – |
| COC(=O)c1c(C)cc2c(c1O)C1(O)C(=O)c3cc4c(c(O)c3C(=O)C1(OC)C(O)C2)C(=O)C=C(NC1OC(C)C(OC)C(O)C1OC)C4=O (centres undefined) | 0.0516 µM | 0.235 µM | 0.324 µM | 0.395 µM | – | 0.205 µM | – | 0.12 µM | – | – |
| O=C(Nc1ccc([N+](=O)[O-])cc1C(=O)O)c1ccc([N+](=O)[O-])cc1 | > 100 µM | > 100 µM | – | 64.9 µM | > 100 µM | > 100 µM | – | > 100 µM | – | – |
| Cc1[nH]n(-c2ccc(S(=O)(=O)O)cc2)c(=O)c1N=Nc1ccccc1 | – | – | – | – | – | – | – | – | > 100 | – |
| COCOCc1cc(OCc2ccccc2)c(OC)cc1Br | > 100 µM | > 100 µM | > 100 µM | > 100 µM | – | – | > 100 µM | > 100 µM | – | – |
| O=C1Cc2ccccc2N1c1c(Cl)cccc1Cl | > 100 µM | 82.3 µM | > 100 µM | > 100 µM | > 100 µM | > 100 µM | > 100 µM | > 100 µM | – | – |
| Oc1ccc2ccccc2c1C(c1ccc(Cl)cc1)c1c(O)ccc2ccccc12 | – | – | – | – | – | – | – | – | 12.2 | – |
| Cc1cc(Cl)ccc1NC(=O)CC1SC(N)=NC1=O (centres undefined) | > 100 µM | – | – | > 100 µM | > 100 µM | > 100 µM | > 100 µM | > 100 µM | – | – |
| O=C1CCCC(=O)C1=C(O)CCCCCCCCCCc1ccccc1 | 97.9 µM | > 100 µM | > 100 µM | > 100 µM | – | > 100 µM | > 100 µM | > 100 µM | – | – |
| CCOC(=O)N[C@H]1CCc2cc(O)c(OC)c(OC)c2-c2ccc(SC)c(=O)cc21 | > 100 µM | > 44.4 µM | > 8 µM | 0.0301 µM | 2.91 µM | > 92.3 µM | > 100 µM | > 100 µM | – | – |
| C/C1=C\CC[C@@]2(C)O[C@@H]2C[C@@H]2[C@H](C/C(C)=C/CC1)OC(=O)C21CCN=N1 (some centres undefined) | – | – | – | – | – | – | – | – | > 100 | GI50 (MDA-N): > 100 µM |
| CN(C)CC(C)(C)C(/C=C/c1ccccc1)=N\Nc1ccccc1 | 22.3 µM | – | 26.8 µM | 0.0605 µM | – | 0.446 µM | 73.1 µM | 11.6 µM | – | – |
| Cn1cnc([N+](=O)[O-])c1SC1=NCCS1 | > 100 µM | > 100 µM | > 100 µM | – | – | > 100 µM | > 100 µM | > 100 µM | – | – |
| CCN(CC)CCC(=O)N1CCc2c([nH]c3ccccc23)C1c1cccnc1 (centres undefined) | > 100 µM | > 100 µM | > 100 µM | > 100 µM | – | > 100 µM | > 100 µM | > 100 µM | – | – |

| SMILES | TGI (M19-MEL melanoma) | TGI (XF 498 CNS) | TGI (SNB-78 CNS) | TGI (KM20L2 colon) | TGI (RXF-631 renal) | TGI (LXFL 529 NSCLC) | TGI (HOP-18 NSCLC) | TGI (DLD-1 colon) | TGI (MDA-N) [µM] | further results |
| --- | --- | --- | --- | --- | --- | --- | --- | --- | --- | --- |
| Oc1ccc2c3c1OC1C(=NN=C4CCC5(O)C6Cc7ccc(O)c8c7C5(CCN6CC5CC5)C4O8)CCC4(O)C(C2)N(CC2CC2)CCC314 (centres undefined) | 40.9 µM | 34.3 µM | > 100 µM | 41.7 µM | – | 43.5 µM | > 100 µM | > 100 µM | – | – |
| CNc1cccnc1/C=N/NC(N)=S | – | – | – | – | – | – | – | – | > 10 | – |
| Cn1cnc([N+](=O)[O-])c1Sc1nc2cccnc2s1 | 29.6 µM | 39.2 µM | > 100 µM | 31.7 µM | 28.4 µM | 25 µM | – | 26.7 µM | – | – |
| N#Cc1c(-c2ccc(Cl)cc2)c(-c2ccc(Cl)cc2)nn(CCOC(=O)CCC(=O)O)c1=O | > 100 µM | – | – | 4.89 µM | – | > 100 µM | > 100 µM | > 100 µM | 0.202 | – |
| C#C[C@@]1(O)CCCC2=CC(=O)C[C@]21C | > 100 µM | > 100 µM | – | – | – | > 100 µM | > 100 µM | > 100 µM | – | – |
| CCOCC(=O)N[C@H]1CCc2cc(OC(=O)COCC)c(OC)c(OC)c2-c2ccc(SC)c(=O)cc21 | – | – | – | – | – | – | – | – | 0.00611 | – |
| COc1ccc(NC(=O)COC(=O)c2cccc3c(=O)c4ccccc4[nH]c23)cc1 | 39 µM | 36.5 µM | 64.2 µM | 51.7 µM | – | 43.3 µM | 93.8 µM | 31.9 µM | – | – |
| O=C1Nc2ccccc2/C1=C/c1ccccc1 | – | – | – | – | – | – | – | – | 40.7 | – |
| Cc1ccc(NC(=O)COC(=O)c2cccc3c(=O)c4ccccc4[nH]c23)cc1 | > 100 µM | 78.3 µM | > 100 µM | > 100 µM | > 100 µM | > 100 µM | > 100 µM | > 100 µM | – | – |
| CCCC(=O)Nc1cc([N+](=O)[O-])c([N+](=O)[O-])cc1OC | – | – | – | – | – | – | – | – | 30.6 | – |
| S=P1(c2ccccc2)Nc2ccc(Cl)cc2N1 (centres undefined) | 67.2 µM | > 100 µM | > 100 µM | > 100 µM | > 100 µM | > 100 µM | > 100 µM | > 100 µM | – | – |
| COc1ccc2cc3[n+](cc2c1OC)CCc1cc2c(cc1-3)OCO2 | 22.4 µM and 41.6 µM | 66.6 µM and 31.4 µM | > 100 µM and 167 µM | > 92.5 µM and 94.6 µM | – | > 74.9 µM | > 100 µM and 207 µM | > 59.9 µM and 253 µM | – | TGI (SN12K1 renal): 37.7 µM; TGI (P388 leukemia): 69.6 µM; GI50 (DLD-1 colon): 26.2 µM and 54.2 µM; TGI (P388/ADR leukemia): > 325 µM |
| CC(C)=CC(O)C/C(C)=C/CC/C(C)=C/CCC1(C)C(CCCO)/C(=C(/C)C=O)CCC1(C)O (centres undefined) | – | – | – | – | – | – | – | – | 52.4 | – |
| C=CCC12CC(=O)C=C1CCC1(C2)OCCO1 (centres undefined) | > 100 µM | – | > 100 µM | > 100 µM | > 100 µM | > 100 µM | > 100 µM | > 100 µM | – | – |
| CCC[CH2][Sn]1([CH2]CCC)[O]C(=O)c2cccc(OC)c2[O]1 | 1.23 µM | 0.28 µM | 0.959 µM | 2.68 µM | – | 0.212 µM | 1.95 µM | 0.986 µM | – | GI50 (M19-MEL melanoma): 0.222 µM; GI50 (XF 498 CNS): 0.131 µM; GI50 (SNB-78 CNS): 0.093 µM; GI50 (KM20L2 colon): 1.33 µM; GI50 (LXFL 529 NSCLC): 0.0427 µM; GI50 (HOP-18 NSCLC): 0.687 µM; GI50 (DLD-1 colon): 0.244 µM |
| CC1C=CC(C)C2(O)C(=O)NC(O)C12 (centres undefined) | > 100 µM | – | > 100 µM | > 100 µM | > 100 µM | > 100 µM | > 100 µM | > 100 µM | – | – |
| C/C=C(\CCC1NCCc2c1[nH]c1ccccc21)[Si](C)(C)C (centres undefined) | 12.9 µM and 3.89 µM | 6.99 µM and 2.75 µM | 24.5 µM and 11.7 µM | 11.7 µM and 4.12 µM | 17.1 µM and 13.9 µM | 9.27 µM and 3.2 µM | 50.8 µM and 19.1 µM | 14.1 µM and 11.3 µM | 3.74 | GI50 (M19-MEL melanoma): 6.62 µM and 1.95 µM; GI50 (KM20L2 colon): 5.29 µM and 1.92 µM |
| CN(C)c1ccc(/C=C/c2ccnc3ccccc23)cc1N | – | – | – | – | – | – | – | – | 12 | – |
| O=C1C2C(C(=O)N1c1ccccc1)C1(c3ccccc3)OC2(c2ccccc2)c2ccccc21 (centres undefined) | > 100 µM | – | – | > 100 µM | > 100 µM | > 100 µM | > 100 µM | > 100 µM | – | – |
